Experimental data as given in US9182402B2, “Hepsin inhibitors” (Fred Hutchinson Cancer Research Center, priority 2008, dated 2015).
Where two headings read alike, the source gives them in different places.

Assays:
recombinant human hepsin = recombinant human hepsin (Homo sapiens, UniProt P05981); experiment: Hepsin activity assay (chromogenic substrate pyroGlu-Pro-Arg-pNA); type: biochemical
Experimental: D. Hepsin, Trypsin and Thrombin Activity Assays.
Purified recombinant hepsin was preincubated with indicated compounds for 30 minutes at room temperature.

thrombin = thrombin (Bos taurus (Bovine), UniProt P00735); experiment: Thrombin activity assay (chromogenic substrate); type: biochemical; settings: for IC50: 30 minutes preincubation at room temperature, substrate at Km
trypsin = trypsin (Sus scrofa (Pig), UniProt P00761); experiment: Trypsin activity assay (chromogenic substrate); settings: read-out: IC50 trypsin; 30 minutes preincubation at room temperature, substrate at Km
LNCaP cells = experiment: Cell cytotoxicity assay (CellTiter-Glo, ATP-luciferase); settings: 20 μM, 72 hours, compounds replenished daily
[1] = tested on: MP-1 mouse prostate epithelial cell line; experiment: as above; settings: MP-1, 20 μM, 72 hours, compounds replenished daily
HepG2 cells = experiment: as above; settings: HepG2, 20 μM, 72 hours, compounds replenished daily
[2] = 30 minutes preincubation at room temperature, substrate at Km

Sequence of recombinant human hepsin (P05981 1-162 limits assumed): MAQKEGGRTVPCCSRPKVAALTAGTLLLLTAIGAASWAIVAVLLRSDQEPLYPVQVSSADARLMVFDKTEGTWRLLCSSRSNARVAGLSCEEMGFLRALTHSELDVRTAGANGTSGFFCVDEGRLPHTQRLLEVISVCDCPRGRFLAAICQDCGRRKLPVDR
Sequence of recombinant human hepsin (P05981 163-417 limits assumed): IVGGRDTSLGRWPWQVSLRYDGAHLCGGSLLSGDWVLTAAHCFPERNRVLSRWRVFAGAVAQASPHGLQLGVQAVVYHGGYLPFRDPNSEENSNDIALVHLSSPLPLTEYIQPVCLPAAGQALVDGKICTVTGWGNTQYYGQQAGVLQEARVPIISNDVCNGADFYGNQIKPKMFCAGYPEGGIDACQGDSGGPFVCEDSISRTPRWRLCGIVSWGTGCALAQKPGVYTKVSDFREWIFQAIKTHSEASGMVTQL
Sequence of trypsin (P00761 9-231): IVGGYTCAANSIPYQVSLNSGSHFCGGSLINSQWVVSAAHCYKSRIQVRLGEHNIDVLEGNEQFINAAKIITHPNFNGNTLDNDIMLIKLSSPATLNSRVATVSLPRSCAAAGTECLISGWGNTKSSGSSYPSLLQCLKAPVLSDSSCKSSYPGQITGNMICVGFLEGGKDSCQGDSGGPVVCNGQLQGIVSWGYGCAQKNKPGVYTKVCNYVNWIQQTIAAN

| IC50 (recombinant human hepsin; [2]) | IC50 (thrombin) | IC50 (trypsin) | activation of thrombin activity (thrombin; at 1 μM) | Compound | cellular toxicity (cell viability) (LNCaP cells) | cellular toxicity (cell viability) [1] | cellular toxicity (cell viability) (HepG2 cells) | IC50 (recombinant human hepsin) |
| --- | --- | --- | --- | --- | --- | --- | --- | --- |
| 980 ± 200 nM | > 20 µM | 10.2 ± 1.5 µM |  | O=[N+]([O-])c1cccc(C2Nc3ccc(Cl)cc3C3C=CCC32)c1 (centres unmarked) [Compound 6, 8-chloro-4-(3-nitrophenyl)-3a,4,5,9b-tetrahydro-3H-cyclopenta[c]quinoline] | limited or no cytotoxicity | limited or no cytotoxicity | limited or no cytotoxicity |  |
| 980 ± 120 nM | > 20 µM | 20.9 ± 7.5 µM |  | Cc1csc(-c2cc3ccc(OCc4c(F)c(F)c(F)c(F)c4F)cc3oc2=O)n1 [Compound 9, 3-(4-methyl-1,3-thiazol-2-yl)-7-[(pentafluorobenzyl)oxy]-2H-chromen-2-one] | limited or no cytotoxicity | limited or no cytotoxicity | limited or no cytotoxicity |  |
| 930 ± 130 nM | > 20 µM | 7.72 ± 1.1 µM |  | CC1(C)CC(=O)c2c(oc3c(Br)cc(NS(=O)(=O)c4ccccc4)cc23)C1 [Compound 10, N-(4-bromo-7,7-dimethyl-9-oxo-6,7,8,9-tetrahydrodibenzo[b,d]furan-2-yl)benzenesulfonamide] | limited or no cytotoxicity | limited or no cytotoxicity | limited or no cytotoxicity |  |
| 760 ± 260 nM | > 20 µM | > 20 µM |  | Cc1ccc(OCc2nnc(NC(=O)Nc3cccc(Cl)c3)s2)cc1C [Compound 2, N-(3-chlorophenyl)-N′-{5-[(3,4-dimethylphenoxy)methyl]-1,3,4-thiadiazol-2-yl}urea] | substantial toxicity | without affecting | without affecting |  |
| 280 ± 70 nM |  | 3.88 ± 0.85 µM | approximately 3 fold | O=C1C=CC(=O)N1c1cccc([N+](=O)[O-])c1 [Compound 1, 1-(3-nitrophenyl)-1H-pyrrole-2,5-dione] | substantial toxicity | without affecting | without affecting |  |
| 720 ± 200 nM | > 20 µM | 1.71 ± 0.21 µM |  | O=C(Nc1ccc(Cl)c(Cl)c1)Nc1nnc(-c2ccc(Br)cc2)s1 [Compound 8, N-[5-(4-bromophenyl)-1,3,4-thiadiazol-2-yl]-N′-(3,4-dichlorophenyl)urea] | limited or no cytotoxicity | limited or no cytotoxicity | limited or no cytotoxicity |  |
| 2310 ± 530 nM | > 20 µM | 13.1 ± 3 µM |  | O=c1oc(-c2cccc(F)c2)nc2ccc(Cc3ccc4nc(-c5cccc(F)c5)oc(=O)c4c3)cc12 [Compound 7, 6,6′-methylenebis[2-(3-fluorophenyl)-4H-3,1-benzooxazin-4-one]] | limited or no cytotoxicity | limited or no cytotoxicity | limited or no cytotoxicity |  |

| Compound | IC50 (recombinant human hepsin; [2]) | IC50 (thrombin) | IC50 (trypsin) | activation of thrombin activity (thrombin; at 1 μM) | cellular toxicity (cell viability) (LNCaP cells) | cellular toxicity (cell viability) [1] | cellular toxicity (cell viability) (HepG2 cells) | IC50 (recombinant human hepsin) |
| --- | --- | --- | --- | --- | --- | --- | --- | --- |
| COc1cccc(OCCOc2cccc(/C=c3\sc4nc5ccccc5n4c3=O)c2)c1 [Compound 11, 2-{3-[2-(3-methoxyphenoxy)ethoxy]benzylidene}[1,3]thiazolo[3,2-a]benzimidazol-3(2H)-one] |  |  | 2 ± 0.33 µM |  | limited or no cytotoxicity | limited or no cytotoxicity | limited or no cytotoxicity | 1310 ± 440 nM |
| Oc1nc2cc(Cl)c(Cl)cc2nc1O [Compound 16, 2,3-dihydroxy-6,7-dichloroquinoxaline] | 750 ± 90 nM | > 20 µM | 2.42 ± 0.29 µM |  | limited or no cytotoxicity | limited or no cytotoxicity | limited or no cytotoxicity |  |
